How the values were obtained:
PBMC [1] = assay: Influence of urea on the vitality of PBMC (Trypan blue counting); format: cell-based
Description: In order to test the influence of urea on the cell vitality, PBMC, as described in Example 2, were purified from the heparinised whole blood of 3 healthy donors ([…]) and respectively 1×10^6 cells in four replicates in T-cell medium (RPMI 1640 with 5% human serum, 2 mM glutamine and 100 U/ml penicillin/100 μg/ml streptomycin (all components from PanSystems, Aidenbach)) was mixed with increasing concentrations of urea (0, 0.05, 0.1, 0.2, 0.3, 0.4, 0.8 or 1.6 mol/liter) and incubated in wells of a 48-well microtitre plate for 17 hours in an incubator with humidified atmosphere and 5% CO2 gassing at 37° C. An 8M urea stock solution which was mixed with 2M NaCl and 2 mM DTE was used for these experiments. The cells were then resuspended in the cultivation formulation by repeatedly pipetting the medium on and off and the total number of cells and the ratio of the living to dead cells was determined using a Neubauer “improved” counting chamber after staining with a Trypan blue solution (0.5% w/v).

PBMC [2] = assay: IFN-γ ELIspot of PBMC incubated with urea; format: cell-based, human; settings: 24 hours; for IFN-γ secretion from PBMCs: donor one
Description: Furthermore, it should be clarified by ELIspot analyses whether urea in populations of purified PBMCs triggers the secretion of cytokines, especially IFN-γ. For this purpose, 96-well nitrocellulose-coated microtitre plates, as described in detail in Example 2, were coated with a monoclonal anti-human IFN-γ antibody (Hölzl, Cologne) (5 μg/ml in PBS) and incubated overnight at 4° C. The antibody solution was pipetted off and the plates were washed four times using 200 μl PBS/formulation in each case. In a following step non-specific binding sites were blocked by adding 200 μl of blocking medium in each case (RPMI with 10% FCS) during a one-hour incubation at 37° C.
PBMC of a healthy donor ([…]) were taken up in a concentration of respectively 2×10^5 purified PBMC/150 μL in T-cell medium containing different urea concentrations (0, 0.05, 0.1, 0.2, 0.3, 0.4, 0.8, and 1.6 mol/liter) (5 replicates each) and the stimulation formulations were incubated for 24 hours in an incubator with a humidified atmosphere with 5% CO2 gassing at 37° C. An 8M urea stock solution which was mixed with 2M NaCl and 2 mM DTE was used for these experiments. The cell suspension was then drawn off and any cells still adhering were removed by washing six times (in each case 200 μl PBS with 0.1% Tween 20, 3 min incubation with washing buffer in each case). The secondary biotinylated antibody (1 μg/ml in PBS, 100 μl/formulation in each case) was then added; the plates were incubated for 2 hours at RT, then washed (6 times, 200 μl PBS/formulation in each case) and incubated for 1 hour with a streptavidin alkaline phosphatase (AP) conjugate (1 μg/ml in PBS; 100 μl/formulation in each case; Hölzl, Cologne). After a last washing step (6 times 200 μl PBS/formulation in each case), the colour reaction took place by adding the enzyme substrate NBT/BCIP (Boehringer, Mannheim). For this purpose a staining solution was prepared [200 μl NBT/BCIP-stock solution to 10 ml staining buffer (0.1 M tris-buffer, pH 9.5 with 0.05 M MgCl2, 0.1 M NaCl)] and 100 μl/formulation was used in each case.
After 10 min the calorimetric reaction was stopped by washing the plates with deionised water (Biosys 2000, BioSys, Karben).

rabbit = assay: Immunisation of a rabbit with urea-adjuvated BZLF1 polypeptide, serum tested in the immunoblot; format: in vivo; settings: intramuscular, 8M urea
Description: In order to test the suitability of urea-adjuvated BZLF-1 polypeptide, 30 μg of BZLF1 polypeptide in 8M urea was adjuvated with Hunters Titermax as specified by the manufacturer (Sigma) and administered intramuscularly to a rabbit. The animal was re-immunised with the same immunogen 4 and 8 week as after the basic immunisation. After a further 3 weeks, blood was taken from the animal and the serum obtained therefrom was tested in different dilutions (1:2000; 1:10000 and 1:50000) in the immunoblot for the presence of BZLF1 specific antibodies. For this purpose BZLF1 polypeptide produced recombinantly in E. coli in various concentrations (20 ng, 100 ng and 500 ng) was separated in a 12.5% SDS gel and the proteins were then transferred onto nitrocellulose. After the protein transfer the still-free protein binding sites on the nitrocellulose were saturated by incubating with a 5% solution of skimmed milk powder in TBS (500 mM NaCl, 25 mM Tris pH 7.5), shaking slightly. The Blot was then washed four times with TTBS for at least 10 min before it was incubated for 1 to 12 hours with the corresponding dilution of the rabbit serum in TBS. […]

Structure (SMILES): NC(N)=O [urea]
- number of dead cells (PBMC [1]): significantly increased number of dead cells
- Living/dead (PBMC [1]; donor one, urea 0.05 mol/liter, 17 hours): 2.2
- Living/dead (PBMC [1]; donor one, urea 0.1 mol/liter, 17 hours): 55
- Living/dead (PBMC [1]; donor one, urea 0.2 mol/liter, 17 hours): 3.6
- Living/dead (PBMC [1]; donor one, urea 0.3 mol/liter, 17 hours): 1.8
- Living/dead (PBMC [1]; donor one, urea 0.4 mol/liter, 17 hours): 0.2
- Living/dead (PBMC [1]; donor one, urea 0.8 mol/liter, 17 hours): 0.04
- Living/dead (PBMC [1]; donor one, urea 1.6 mol/liter, 17 hours, 0 = exclusively dead cells): 0
- Living/dead (PBMC [1]; donor three, urea 0.05 mol/liter, 17 hours): 11.7
- Living/dead (PBMC [1]; donor three, urea 0.1 mol/liter, 17 hours): 41.3
- Living/dead (PBMC [1]; donor three, urea 0.2 mol/liter, 17 hours): 30.2
- Living/dead (PBMC [1]; donor three, urea 0.3 mol/liter, 17 hours): 9
- Living/dead (PBMC [1]; donor three, urea 0.4 mol/liter, 17 hours): 0.2
- Living/dead (PBMC [1]; donor three, urea 0.8 mol/liter, 17 hours): 0.02
- Living/dead (PBMC [1]; donor three, urea 1.6 mol/liter, 17 hours, 0 = exclusively dead cells): 0
- Living/dead (PBMC [1]; donor two, urea 0.05 mol/liter, 17 hours): 15.9
- Living/dead (PBMC [1]; donor two, urea 0.1 mol/liter, 17 hours): 1.7
- Living/dead (PBMC [1]; donor two, urea 0.2 mol/liter, 17 hours): 6.6
- Living/dead (PBMC [1]; donor two, urea 0.4 mol/liter, 17 hours): 1
- Living/dead (PBMC [1]; donor two, urea 0.8 mol/liter, 17 hours): 0.1
- Living/dead (PBMC [1]; donor two, urea 1.6 mol/liter, 17 hours): 0.06
- dead versus living cells in the PBMC cultures (PBMC [1]; from a urea concentration of 0.4 mol/liter, 17 hours, regardless of the donor): more dead than living cells
- ratio of living to dead cells compared to the untreated cells (PBMC [1]; urea 0 to 0.2 mol/liter, 17 hours): no significant reduction
- total number of cells (cytolytic effect) (PBMC [1]; urea concentrations above 0.3 mol/liter, 17 hours): significant reduction in the total number of cells
- IFN-γ secretion from PBMCs (PBMC [2]; urea 0.05 mol/liter): 26.2 Spots/2 × 10^6 cells
- IFN-γ secretion from PBMCs (PBMC [2]; urea 0.1 mol/liter): 29.6 Spots/2 × 10^6 cells
- IFN-γ secretion from PBMCs (PBMC [2]; urea 0.2 mol/liter): 26.4 Spots/2 × 10^6 cells
- IFN-γ secretion from PBMCs (PBMC [2]; urea 0.3 mol/liter): 11.0 Spots/2 × 10^6 cells
- IFN-γ secretion from PBMCs (PBMC [2]; urea 0.4 mol/liter): 18.2 Spots/2 × 10^6 cells
- IFN-γ secretion from PBMCs (PBMC [2]; urea 0.8 mol/liter): 14.6 Spots/2 × 10^6 cells
- IFN-γ secretion from PBMCs (PBMC [2]; urea 1.6 mol/liter): 13.4 Spots/2 × 10^6 cells
- release of IFN-γ from cultures of peripheral blood mononuclear cells (PBMC [2]; urea 0.05 to 1.6 mol/liter): no significantly increased release of IFN-γ
- toxicity of the urea contained in the injection solution for the experimental animal (rabbit): non-toxic
